Like-named read-outs stand apart in the source and are kept apart here.
Key:
Type in all cases: cell-based
TRPV4 = TRPV4 (Rattus norvegicus, UniProt Q9ERZ8); test: Fluo-4 calcium imaging in transfected HEK293A cells, agonist at […]
TRPA1 [1] = biological target: T1, TRPA1 (Mus musculus, UniProt Q8BLA8); test: as above
TRPA1 [2] = biological target: T1, TRPA1; details: HEK293-A, read-out: % reduction at 50 μM
TRPV1 [3] = biological target: T2, TRPV1 (Mus musculus, UniProt Q704Y3); test: Fluo-4 calcium imaging in transfected HEK293A cells, agonist at […]
TRPA1 [4] = biological target: T1, TRPA1; details: HEK293-A, read-out: % reduction at 50 μM; remark: listed apart in the source
TRPV1 [5] = biological target: T2, TRPV1
TRPV1 [6] = biological target: T2, TRPV1; test: Fluo-4 calcium imaging in TRPV1-transfected HEK293A cells, […]
TRPV1 [7] = biological target: T2, TRPV1; details: HEK293-A, read-out: % reduction at 50 μM

T2 sequence (Q704Y3 whole entry): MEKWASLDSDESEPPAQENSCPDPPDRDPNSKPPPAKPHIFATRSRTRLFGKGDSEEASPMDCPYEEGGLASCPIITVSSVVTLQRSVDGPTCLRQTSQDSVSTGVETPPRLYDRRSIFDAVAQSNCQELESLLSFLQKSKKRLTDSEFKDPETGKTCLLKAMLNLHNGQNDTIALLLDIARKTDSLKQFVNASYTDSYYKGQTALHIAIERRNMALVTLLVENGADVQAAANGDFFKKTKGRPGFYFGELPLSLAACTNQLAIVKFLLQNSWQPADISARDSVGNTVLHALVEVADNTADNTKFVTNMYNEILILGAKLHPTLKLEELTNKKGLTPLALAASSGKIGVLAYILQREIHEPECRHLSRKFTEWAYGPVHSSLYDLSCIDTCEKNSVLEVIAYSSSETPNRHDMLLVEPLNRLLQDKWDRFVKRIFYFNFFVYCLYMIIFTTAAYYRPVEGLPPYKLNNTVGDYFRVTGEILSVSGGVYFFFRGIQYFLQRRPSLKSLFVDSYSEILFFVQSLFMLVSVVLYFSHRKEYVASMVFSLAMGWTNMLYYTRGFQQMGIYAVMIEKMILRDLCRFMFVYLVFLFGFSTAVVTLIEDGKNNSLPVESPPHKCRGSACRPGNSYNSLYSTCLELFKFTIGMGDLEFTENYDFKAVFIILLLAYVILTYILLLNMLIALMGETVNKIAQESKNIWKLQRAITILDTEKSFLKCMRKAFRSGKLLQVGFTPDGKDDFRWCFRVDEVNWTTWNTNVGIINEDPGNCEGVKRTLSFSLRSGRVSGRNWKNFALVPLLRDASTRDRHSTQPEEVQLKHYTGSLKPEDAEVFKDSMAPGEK
T1 sequence (Q8BLA8 whole entry): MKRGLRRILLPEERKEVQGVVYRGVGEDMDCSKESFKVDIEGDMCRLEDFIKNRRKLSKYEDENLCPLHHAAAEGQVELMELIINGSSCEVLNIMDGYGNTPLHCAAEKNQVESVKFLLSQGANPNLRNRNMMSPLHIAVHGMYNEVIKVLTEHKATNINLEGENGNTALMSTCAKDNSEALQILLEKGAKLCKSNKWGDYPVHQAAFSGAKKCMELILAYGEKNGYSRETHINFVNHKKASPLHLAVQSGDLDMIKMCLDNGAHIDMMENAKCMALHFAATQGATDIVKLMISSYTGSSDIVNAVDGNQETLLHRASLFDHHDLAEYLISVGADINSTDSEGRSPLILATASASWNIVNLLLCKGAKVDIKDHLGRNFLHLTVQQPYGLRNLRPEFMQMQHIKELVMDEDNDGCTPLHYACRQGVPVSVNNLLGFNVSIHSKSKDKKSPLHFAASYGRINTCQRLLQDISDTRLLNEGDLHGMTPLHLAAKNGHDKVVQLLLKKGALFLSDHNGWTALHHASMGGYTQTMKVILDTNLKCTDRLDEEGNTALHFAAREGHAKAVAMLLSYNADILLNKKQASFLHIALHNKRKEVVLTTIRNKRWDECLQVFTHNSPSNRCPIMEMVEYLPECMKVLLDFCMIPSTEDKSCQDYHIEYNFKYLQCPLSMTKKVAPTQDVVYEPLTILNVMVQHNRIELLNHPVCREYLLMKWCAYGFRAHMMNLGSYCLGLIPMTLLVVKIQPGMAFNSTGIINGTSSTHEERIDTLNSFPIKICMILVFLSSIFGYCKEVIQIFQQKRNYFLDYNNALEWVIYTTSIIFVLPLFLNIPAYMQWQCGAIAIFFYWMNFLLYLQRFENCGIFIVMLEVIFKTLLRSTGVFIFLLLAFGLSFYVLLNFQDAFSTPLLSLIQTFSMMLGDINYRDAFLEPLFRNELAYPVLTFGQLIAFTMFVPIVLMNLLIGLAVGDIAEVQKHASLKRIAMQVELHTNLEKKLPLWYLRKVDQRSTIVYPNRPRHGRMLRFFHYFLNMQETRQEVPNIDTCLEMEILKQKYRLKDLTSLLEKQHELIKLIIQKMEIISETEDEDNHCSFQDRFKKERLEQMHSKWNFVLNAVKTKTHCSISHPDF
Chain of TRPV4 (Q9ERZ8 whole entry): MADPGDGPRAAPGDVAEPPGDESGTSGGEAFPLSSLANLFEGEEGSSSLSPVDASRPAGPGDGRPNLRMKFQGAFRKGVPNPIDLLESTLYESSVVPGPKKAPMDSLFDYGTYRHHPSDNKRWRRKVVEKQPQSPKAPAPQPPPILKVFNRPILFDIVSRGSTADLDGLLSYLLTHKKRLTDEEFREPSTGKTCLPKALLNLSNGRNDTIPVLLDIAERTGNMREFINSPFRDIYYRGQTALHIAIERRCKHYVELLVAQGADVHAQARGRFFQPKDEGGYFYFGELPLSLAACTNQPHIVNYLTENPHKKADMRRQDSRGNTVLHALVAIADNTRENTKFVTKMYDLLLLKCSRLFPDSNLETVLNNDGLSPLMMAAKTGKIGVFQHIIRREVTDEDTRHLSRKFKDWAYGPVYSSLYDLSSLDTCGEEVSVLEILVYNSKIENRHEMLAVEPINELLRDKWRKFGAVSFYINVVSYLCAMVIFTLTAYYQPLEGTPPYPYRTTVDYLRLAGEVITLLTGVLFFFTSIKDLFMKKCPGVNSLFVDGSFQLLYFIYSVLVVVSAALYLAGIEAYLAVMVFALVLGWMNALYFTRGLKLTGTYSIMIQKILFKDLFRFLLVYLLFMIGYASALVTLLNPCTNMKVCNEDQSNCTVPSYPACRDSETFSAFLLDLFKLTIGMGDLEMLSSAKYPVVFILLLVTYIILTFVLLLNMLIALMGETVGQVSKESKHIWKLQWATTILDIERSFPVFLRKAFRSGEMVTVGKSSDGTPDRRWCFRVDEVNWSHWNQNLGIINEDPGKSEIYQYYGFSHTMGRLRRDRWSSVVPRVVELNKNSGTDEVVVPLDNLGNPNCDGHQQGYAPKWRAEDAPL

In the case of `CC(C)C[C@H](NC(=O)c1cc2ccccc2s1)C(=O)N1CCN(C(=O)[C@H](CO)NS(=O)(=O)c2ccc(Cl)cc2Cl)CC1` [GSK1016790A], the “Fluo-4 calcium imaging in transfected HEK293A cells, agonist at 0.2 μM” value (TRPV4) is reported as “only channel-transfected, RFP^+ cells, but not untransfected, RFP^− cells, exhibited a calcium flux in response to the corresponding agonist”.
`C=CCN=C=S` [allyl isothiocyanate] was tested, and the “Fluo-4 calcium imaging in transfected HEK293A cells, agonist at 10 μM” value (TRPA1 [1]) was “only channel-transfected, RFP^+ cells, but not untransfected, RFP^− cells, exhibited a calcium flux in response to the corresponding agonist”.
`CCCCC/C=C\C/C=C\C/C=C\C/C=C\CCCC(=O)N[C@@H](Cc1ccccc1)C(=O)O` [C20:4-Phe] was tested, and the inhibition at 50 µM (TRPA1 [2]) was 87 ± 5%.
`COc1cc(CNC(=O)CCCC/C=C/C(C)C)ccc1O` [capsaicin] was tested, and the “Fluo-4 calcium imaging in transfected HEK293A cells, agonist at 10 μM” value (TRPV1 [3]) was “capsaicin treatment induced a robust increase in the intracellular calcium concentration in the TRPV1-transfected, RFP^+ cells”.
`CCCCCCCC/C=C\CCCCCCCC(=O)N[C@@H](CCC(N)=O)C(=O)O` [C18:1-Gln, N-oleoyl-glutamine] gave an inhibition at 50 µM (TRPA1 [4]) of 94 ± 5% and an IC50 (TRPV1 [5]) of 1300 nM.
In the case of `CCCCCCCC/C=C\CCCCCCCC(=O)N[C@H](CCC(N)=O)C(=O)O` [C18:1-D-Gln], the “Fluo-4 calcium imaging in TRPV1-transfected HEK293A cells, 50 μM” value (TRPV1 [6]) is reported as “the unnatural enantiomer C18:1-D-Gln fully antagonized capsaicin-induced TRPV1 calcium flux”.
Compound `CCCCC/C=C\C/C=C\C/C=C\C/C=C\CCCC(=O)N[C@@H](CO)C(=O)O` [C20:4-Ser] has an inhibition at 50 µM (TRPA1 [2]) of 68 ± 8%.
In the case of `CCCCCCCC/C=C\CCCCCCCC(=O)N[C@@H](CC(N)=O)C(=O)O` [C18:1-Asn], the inhibition at 50 µM (TRPV1 [7]) is reported as 49 ± 7%.

From paper PMC6055169 (Proceedings of the National Academy of Sciences of the …, 2018)
